Reference: patent US20110071094A1, “(D)-ALLOSE INDUCING PROGRAMMED CELL DEATH IN HORMONE REFRACTORY PROSTATE CANCER LINES” (INDUSTRY-ACADEMIC COOPERATION FOUDATION, GYEONGSANG …, priority 2008, published 2011)

What was measured:
Assay type in all cases: cell-based, human
Bax mRNA = assay: RT-PCR of Bax mRNA in DU145; conditions: DU145, 72 h, 0, 20 and 40 mM; relative to reduced Bcl-2 mRNA
Procedure: To identify the relative levels of expression of Bcl-2, Bax and Caspase 3 mRNAs after 0, 20 and 40 mM of D-allose treatments for 72 h, RT-PCR was performed. DU145 cell line (1×10^6 cells in triplicate culture plates) was harvested as mentioned above and total RNA was extracted using TRIzol reagent (Invitrogen, Carlsbad, Calif., USA) following a standard laboratory protocol. The RNA purity and concentrations were determined. Then 2 μg of total RNA was reversely transcribed to single-stranded cDNA using Oligo(dT)12-18 primer (Invitrogen, Carlsbad, Calif., USA) with M-MLV reverse transcriptase (Promega, Madison, Wis., USA). For PCR reaction, 4 μl of cDNA was reacted with 20 pmol each of the forward and reverse primers (Bioneer Corporation, Seoul, South Korea), and GoTaq® Green Master Mix […] containing PCR buffer, 25 mM magnesium chloride, 10 mM dNTP mix and Taq enzyme (Promega, Madison, Wis., USA), and amplified. […] The molecular sizes of the amplified products were determined by comparison with the molecular weight marker (100 by DNAladder; Promega, Madison, Wis., USA) run parallel with the PCR products. The densities of mRNA bands were analyzed by Molecular Analyst™, version 1.4.1 (Bio-Rad, Hercules, Calif., USA).

DU145 cell line [1] = assay: Mitochondrial Δψm by JC-1, flow cytometry; conditions: DU145, 20 and 40 mM, 24, 48 and 72 h
Procedure: Mitochondrial Δψm was measured by JC-1 mitochondrial membrane potential detection kit (Biotium Inc, Hayward, Calif., USA) according to the manufacturer's protocol. Briefly, DU145 cell line (1×10^6 cells in triplicate culture plates) was harvested after treatments with 0, 20 and 40 mM of D-allose for up to 72 h as mentioned above, stained with […] JC-1 reagent at 37° C. for 15 min and resuspended twice in 1× assay buffer. Changes in mitochondrial Δψm were measured at the single cell level by FACSCalibur flow cytometer (Becton Dickinson, San Jose, Calif., USA) under the following conditions: FL1, 511 volts; FL2, 389 volts; FL1-10.5% FL2; FL2-25.9% FL1; 488 nm argon excitation laser and 585 nm band pass filter. In total 10,000 cells were acquired for analysis by CellQuest software, version 3.0 (Becton Dickinson, San Jose, Calif., USA), and the quantification of cells with low mitochondrial Δψm as the percentage of total cell population was performed. Further, the DU145 cell line was seeded onto chamber slides with 1×10^5 cells/chamber in 500 μl of complete culture medium containing 0, 20 and 40 mM of D-allose for 72 h, permeabilized with 0.1% Triton, stained with 1×JC-1 reagent in dark, mounted with Prolong Antifade reagent (Molecular Probes, Eugene, Oreg., USA), and images (JC-1, green) were acquired by use of a fluorescence microscope (Axioplan 2, Carl Zeiss, Germany).

DU145 cell line [2] = assay: Fura-2 measurement of [Ca^2+]c; conditions: DU145, 20 and 40 mM, 48 h
Procedure: [Ca^2+]c was measured by fluorescent indicator fura-2 acetoxymethyl ester (fura-2 AM) as described in Malgaroli A et al., J. Cell. Biol. 105:2145-2155, 1987. Briefly, DU145 cell line (1×10^6 cells in triplicate culture plates) was exposed to 0, 20 and 40 mM of D-allose for 48 and 72 h and then incubated with serum-free culture media containing 5 μM of fura-2AM at 37° C. in dark for another 1 h. The cells were washed twice with Locke's solution (pH 7.3) and the fura-2 fluorescence signals of [Ca^2+]c were measured by luminescence spectrophotometer (LS 50B, Perkin Elmer, Boston, Mass., USA) using 340 and 380 nm as excitation wavelengths (λex), and 510 nm as emission wavelength (λem). […] The slides were mounted with Prolong Antifade reagent (Molecular Probes, Eugene, Oreg., USA), and images (JC-1, green) were acquired by use of a fluorescence microscope (Axioplan 2, Carl Zeiss, Germany).

SMILES: O=C[C@H](O)[C@H](O)[C@H](O)[C@H](O)CO [D-allose]
- Bax mRNA expression (Bax mRNA): opposite effect
- cells with low mitochondrial Δψm (DU145 cell line [1]): appearance of a remarkable subpopulation of cells with low mitochondrial Δψm in a dose- and time-dependent manner
- [Ca^2+]c (DU145 cell line [2]): remarkably elevated
